Measurements published in paper PMC5126104, “Identification of a Chemoreceptor in Pseudomonas aeruginosa That Specifically Mediates Chemotaxis Toward α-Ketoglutarate” (Frontiers in Microbiology, 2016).

B1: McpK ligand binding domain (McpK-LBD) (domain or fragment, Pseudomonas aeruginosa PAO1, UniProt Q9HUB1 38-293, looked up)
chain: RTLTHQTALSEQLAEVASLMEQTQQAEQGRLAFEAGSDPRQAEQVRQTLAGMLQRLQALRDSELDPAALAHQVEAIEAYRKAFDDLAAADQQRSAARGVLVGTAQQALDSFARLEELMDASLAQQAGDPQALQRSRAVADLHQQLLMVRYQVRGYVFERSDKAEQAAFAAFDALRQAATTLRGQLPGEADAALEQAMGSLQGYRGGIEQFRAGVIRTRQAQQAMQSSTQDMARAGRTLTEAGRQLRESTASRDRAS
notes: No removal of the tag is described; In monomer-dimer equilibrium by AUC; also called PA5072-LBD; source: E. coli BL21 (DE3), pET28-McpK-LBD, purified (HisTrap column)

Biological target: T1, McpK (PA5072) chemoreceptor ligand binding domain (Pseudomonas aeruginosa, UniProt Q9HUB1)
T1 construct: McpK-LBD, Arg38–Ser293
Test: ITC (two symmetric-site cooperative model; Kd1 =[…], Kd2 =[…]); supported by thermal shift (+[…]°C) and AUC dimer stabilization
Conditions: not given

Row | Molecule | Kd
1 | O=C(O)CCC(=O)C(=O)O [α-ketoglutarate] | 80.9 µM

Biological target: T1, McpK (PA5072) chemoreceptor ligand binding domain
Test: not given
Set-up: thermal shift assay with SYPRO Orange, Tm change of recombinant McpK-LBD
Conditions: binder
Description: Thermal shift assays were performed using a BioRad MyIQ2 Real-Time PCR instrument. Ligands were prepared by dissolving Biolog Phenotype Microarray compounds in 50 μl of MilliQ water to obtain a final concentration of around 10–20 mM (as indicated by the manufacturer). Screening was performed with plates PM1, PM2A, PM3B, PM4A, and PM5. Each plate contains 95 compounds and a control (Supplementary Figure S1). Each 25 μl assay mixture contained 40 μM protein in 5 mM Tris, 5 mM Pipes, 5 mM Mes, pH8.0 and SYPRO orange (Life Technologies) at 5x concentration. Aliquots of 2.5 μl of the resuspended Biolog compounds were added to each well. Samples were heated from 23°C to 85°C at a scan rate of 1°C/min. The protein unfolding curves were monitored by detecting changes in SYPRO Orange fluorescence. Melting temperatures were determined using the first derivative values from the raw fluorescence data. […] Ligands tested included different bacterial carbon-, nitrogen-, phosphorous-, and sulfur sources as well as to nutrient supplements, which are listed in Supplementary Figure S1. A total of 13 compounds were identified that increased or decreased the Tm by at least 2°C (Supplementary Table S2), which is the generally accepted threshold for a relevant ligand-induced change in protein stability.

Row | Molecule | Tm Shift (°C)
2 | O=C(O)/C=C/C(=O)O [Fumarate] | +0.3 °C
3 | O=C1O[C@@H]([C@H](O)CO)[C@H](O)[C@H]1O [D-Galactonic acid-γ-lactone] | +2 °C
4 | CCCC(=O)O [Butyrate] | +0.7 °C
5 | N[C@@H](CCC(=O)O)C(=O)O [L-Glutamic acid] | +2.3 °C
6 | NCCc1ccccc1 [Phenylethylamine] | +3.5 °C
7 | O=c1cc[nH]c(=O)[nH]1 [Uracil] | +4.2 °C
8 | NC(=O)OP(=O)(O)O [Carbamyl phosphate] | +3.5 °C
9 | NCCCC(=O)O [γ-Aminobutyric acid] | +4.1 °C
10 | CC(=O)C(=O)O [Pyruvate] | +0.1 °C
11 | CC(=O)O [Acetate] | -0.2 °C
12 | O=C(O)CCC(=O)C(=O)O [α-ketoglutarate] | +5.2 °C
13 | O=C(O)[C@H]1OC(O)[C@H](O)[C@@H](O)[C@H]1O (stereo partly drawn) [D-Galacturonic acid] | +2.3 °C
14 | NC(=O)CC[C@H](N)C(=O)O [L-Glutamine] | +2.2 °C
15 | C=C(CC(=O)O)C(=O)O [Itaconate] | -2.2 °C
16 | O=C(O)CC(O)(CC(=O)O)C(=O)O [Citrate] | +0.8 °C
17 | CC(O)C(=O)O (stereo not drawn) [Lactate] | +0.2 °C
18 | O=C(O)CC(=O)C(=O)O [Oxaloacetate] | +0 °C
19 | O=C(O)CC(CC(=O)O)C(=O)O [Tricarballylate] | +0.3 °C
20 | COC(=O)C(C)=O [Methyl pyruvate] | +3.3 °C
21 | NCCCCC(=O)O [5-Aminovaleric acid] | +3.9 °C
22 | N[C@@H](C(=O)O)[C@@H](O)[C@H](O)[C@H](O)CO [D-Glucosaminic acid] | +3.5 °C
23 | O=C(O)CC(O)C(=O)O (stereo not drawn) [Malate] | +0.5 °C
24 | O=C(O)CCC(=O)O [Succinate] | -0.3 °C

Biological target: the molecule itself
Test: AUC; sedimentation equilibrium, multi-speed, McpK-LBD at 40, 50 and 60 uM with 1 mM alpha-ketoglutarate, 7 °C, dialysis buffer (5 mM Tris, 5 mM PIPES, 5 mM MES, pH 8.0); global fit in SEDPHAT; dimer to monomers
Conditions: not given

Row | Molecule | Kd
25 | B1 | 5.9 µM

Biological target: the molecule itself
Test: AUC; sedimentation equilibrium, multi-speed, ligand-free McpK-LBD at 40, 50 and 60 uM, 7 °C, dialysis buffer (5 mM Tris, 5 mM PIPES, 5 mM MES, pH 8.0); global fit in SEDPHAT; dimer to monomers
Conditions: not given

Row | Molecule | Kd
26 | B1 | 55 µM

Biological target: the molecule itself
Test: AUC; sedimentation velocity, McpK-LBD (10-50 uM) with 1 mM alpha-ketoglutarate, 7 °C, 5 mM Tris, 5 mM PIPES, 5 mM MES, pH 8.0; c(s) analysis in SEDFIT
Conditions: not given

Row | Molecule | stoichiometry N
27 | B1 | 2
